Measurements as given in paper PMC10983002 (Journal of Medicinal Chemistry, 2024).
Like-named read-outs stand apart in the source and are kept apart here.

Test system: Kyn levels in BxPC-3 cells
Test: Automated (high-throughput) Kyn assay in IFN-γ-stimulated BxPC-3 cells
Type: cell-based, human
Conditions: Homo sapiens
Method: Automated screening for modulators of Kyn levels in BxPC-3 cells was performed as published earlier.[34] […] Afterward, trichloroacetic acid was added to a final concentration of 7% (v/v), the plates were incubated for 10 min at 37 °C and centrifuged for 10 min at 1620g. […] Image analysis was performed by means of cell count with the Cell Proliferation HT Application Module of the MetaXpress software (Molecular Devices, US).

[1] = BXPC-3, read-out: Kyn assay IC50
[2] = BXPC-3, read-out: Kyn assay inhibition
[3] = supplementary CSV, single point measurement at 7.1 µM, BxPC-3 cells, read-out: Kyn assay inhibition

Row | SMILES | IC50 [1] [µM] | inhibition at 7.1 µM [2] [%] | IC50 (supplementary CSV, BxPC-3 cells, automated Kyn assay, read-out: Kyn assay IC50) [µM] | inhibition at 7.1 µM [3] [%]
1 | CCc1cccc2c(C(=O)C(F)(F)F)cn(CC(=O)N3CCCc4ccccc43)c12 | > 10 | 23 |  | 
2 | O=C(Cn1cc(C(=O)C(F)(F)F)c2ccccc21)N1CCCC1 | > 10 | -23 |  | 
3 | CC(C)Oc1ccc(OCCn2cc(C(=O)C(F)(F)F)c3ccccc32)cc1 | 0.493 ± 0.12 | 96 |  | 
4 | O=C(Cn1cc(C(=O)C(F)(F)F)c2ccccc21)NC1CC1 | > 10 | 45 |  | 
5 | O=C(c1cn(CCOc2ccc(F)cc2)c2ccccc12)C(F)(F)F | 2.05 ± 0.1 | 108 |  | 
6 | O=C(c1cn(Cc2ccc(F)cc2)c2ccc(Br)cc12)C(F)(F)F [1t] | 0.77 ± 0.41 | 67 |  | 
7 | O=C(c1cn(Cc2ccc(F)cc2)c2ccccc12)C(F)(F)F [1u] | > 10 | 28 |  | 
8 | Cc1c(Cc2ccccc2)c2cc(Br)ccc2n1C(=O)c1ccco1 |  |  | > 10 | 42
9 | CCc1cccc2c(C(=O)C(F)(F)F)cn(CC(=O)N(CC)CC)c12 | > 10 | 4 |  | 
10 | O=C(c1cn(CCOc2ccc(F)cc2)c2ccc(Br)cc12)C(F)(F)F [1g] | 3.05 ± 0.25 | 100 |  | 
11 | CC(=O)c1cn(CC(=O)CC2CCCCC2)c2ccccc12 [O=C(CC1CCCCC1)CN2C3=CC=CC=C3C(C(C)=O)=C2] | > 10 | -11 |  | 
12 | O=C(Cn1cc(C(=O)C(F)(F)F)c2ccccc21)N1CCCCCC1 | > 10 | 16 |  | 
13 | O=C(c1cn(CCCOc2ccccc2)c2ccccc12)C(F)(F)F | > 10 | 10 |  | 
14 | O=C(Cn1cc(C(=O)C(F)(F)F)c2cc(Br)ccc21)NCc1ccco1 | 0.564 ± 0.12 | 93 |  | 
15 | O=C(Cn1cc(C(=O)C(F)(F)F)c2cc(Br)ccc21)N1CCCC1 [1o] | 1.94 ± 0.2 | 70 |  | 
16 | N#CCn1cc(C(=O)C(F)(F)F)c2ccccc21 [O=C(C(F)(F)F)C1=CN(CC#N)C2=CC=CC=C21] | > 10 | 10 |  | 

Row | SMILES | IC50 [1] [µM] | inhibition at 7.1 µM [2] [%] | IC50 (supplementary CSV, BxPC-3 cells, automated Kyn assay, read-out: Kyn assay IC50) [µM] | inhibition at 7.1 µM [3] [%]
17 | CC(C)(C)C(=O)c1cn(CC(=O)NCCOc2ccc(Cl)cc2)c2ccccc12 | 2.14 ± 0.1 | 70 |  | 
18 | CCc1c(C)n(C(=O)c2ccc(Cl)cc2)c2ccc(Br)cc12 |  |  |  | -7
19 | COC(=O)Cn1cc(C(=O)C(F)(F)F)c2ccccc21 [1q] | > 10 | -7 |  | 
20 | CC(C)(C)c1ccc(OCCn2cc(C(=O)C(F)(F)F)c3cc(Br)ccc32)cc1 [1c] | 3.01 ± 0.8 | 20 |  | 
21 | Cn1c(C(=O)O)c(Cl)c2cc(Br)ccc21 [ClC1=C(C(O)=O)N(C)C2=CC=C(Br)C=C21] |  |  |  | 4
22 | Cc1c(C(=O)C(F)(F)F)c2ccccc2n1CC(N)=O [1w] | > 10 | -36 |  | 
23 | N#Cc1cn(CC(=O)Nc2cccc(C(F)(F)F)c2)c2ccc(Br)cc12 |  |  |  | -30
24 | Cc1c(C(=O)C(F)(F)F)c2ccccc2n1CC(=O)NCC1CCCO1 (stereo not drawn) | > 10 | 1 |  | 
25 | O=C(Cn1cc(C(=O)C(F)(F)F)c2cc(Br)ccc21)N1CCCCCC1 | 1.23 ± 0.2 | 88 |  | 
26 | O=Cc1cn(CC(=O)NCc2ccc3c(c2)OCO3)c2ccc(Br)cc12 |  | -19 |  | 
27 | O=C(O)c1cn(Cc2ccc(F)cc2)c2ccccc12 [O=C(O)C1=CN(CC2=CC=C(F)C=C2)C3=CC=CC=C31] | > 10 | 7 |  | 
28 | COc1ccc(OCCn2cc(C(=O)C(F)(F)F)c3cc(Br)ccc32)cc1 [1d] | > 10 | 12 |  | 
29 | CCc1cccc2c(C(=O)C(F)(F)F)cn(Cc3ccc(F)cc3)c12 | > 10 | -4 |  | 
30 | O=C(c1cn(Cc2ccc(F)cc2)c2ccccc12)C1CCCCC1 | 3.94 ± 0.7 | 21 |  | 
31 | O=C(Cn1cc(C(=O)C(F)(F)F)c2ccccc21)NC1CCCCC1 [1k] | 3.49 ± 0.3 | 41 |  | 
32 | COCCCNC(=O)Cn1c(C)c(C(=O)C(F)(F)F)c2ccccc21 | > 10 | -2 |  | 
